For data set [1], the system named is HEK293 mts17β-HSD10 cells. Nature of the data set: Lactate dehydrogenase (LDH) cytotoxicity assay. Conditions: 24 h. It is filed as cell-based. On the procedure:
Lactate dehydrogenase (LDH) is a colorimetric assay routinely used to quantitatively measure LDH released into the media from damaged cells as a biomarker for cellular cytotoxicity and cytolysis. HEK293 mts17β-HSD10 cells were treated with compound (100 and 25 μM) for 24 h before measurements were taken.
Cell cytotoxicity was assessed via the measurement of lactate dehydrogenase leakage into the culture medium using a commercially available kit from Pierce (Thermo Scientific, UK, cat no. 88953). This was carried out in accordance with the kit guidelines, with the activity of LDH being calculated from the change in absorbance at […] as NADH is reduced. HEK293 cells overexpressing mts17β-HSD10 were cultured in phenol-red free media (10% FBS, 1 mM Sodium Pyruvate, 100 units Penicillin, 0.1 mg/mL Streptomycin and 2 mM L-Glutamine) and seeded at a density of 10,000 cells per well (100 µL, 96-well plates). Cells were then treated with compound of interest at 2 concentrations (25 µM and 100 µM in DMSO) in triplicate. Treated cells were then incubated at 37 °C and CO2 (5%) for 24 hours before the LDH assay was performed as per the manufacturer’s instructions. Spontaneous control (water) and maximum control (lysis buffer) used in accordance with the kit guide. Absorbance was measured at 490 nm and 680 nm using the SpectraMaxM2e spectrophotometer (Molecular Devices, San Jose, CA, USA). The measured LDH activity was used to calculate % cytotoxicity using the following equation: (1) % cytotoxicity=(compound treated LDH Activity−Spontaneous LDH Activity)/(Maximum LDH Activity−Spontaneous LDH Activity)×100

In data set [2] the target is T1, 17β-HSD10 (Homo sapiens, UniProt Q99714).
T1 sequence (Q99714 1-261): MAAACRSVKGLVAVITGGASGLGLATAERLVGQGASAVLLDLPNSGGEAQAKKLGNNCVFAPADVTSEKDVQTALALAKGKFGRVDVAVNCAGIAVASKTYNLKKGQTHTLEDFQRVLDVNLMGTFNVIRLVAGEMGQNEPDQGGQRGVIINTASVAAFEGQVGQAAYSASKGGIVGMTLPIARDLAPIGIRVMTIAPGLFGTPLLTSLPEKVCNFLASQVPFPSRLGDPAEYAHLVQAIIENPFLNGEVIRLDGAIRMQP
Description: recombinant 17β-HSD10 enzyme activity assay (primary NADH screen and dose response). The class given is biochemical. Conditions: for IC50: recombinant enzyme, dose response, 95% CI; for remaining activity at 25 µM: relative remaining activity, 25 μM compound, six independent measurements ± SEM, read-out: 17β-HSD10 activity in the presence of compound at 25 μM (Primary Screen). The arrangement: made in house. The text has this:
In order to reduce attrition rates and improve assay reproducibility we have developed a high throughput screening (HTS) pipeline (Figure 3 [19]). In brief, compounds are screened in the recombinant 17β-HSD10 enzyme activity assay (Table 5, Figure 4). Our best previously published compounds have set the threshold of 40% remaining 17β-HSD10 activity as a minimum standard and if compounds can better this threshold, they are further screened using our orthogonal counter assays, dose response assays and kinetic assessment (Table 5). Finally, if passing these criteria with favourable characteristics, the compounds progress into cellular evaluation through cytotoxicity testing and measuring 17β-HSD10 activity within cells (Table 6).
Full results for the primary nicotinamide adenine dinucleotide (NADH) assay screens are shown in Figure 4 including our four best previously published compounds for comparison (Figure 1).
Purification of 17β-HSD10 protein was performed as described in our previous work.
(§1) Compound screening, dose response and mechanism of inhibition experiments were performed as described in Hroch et al. 2016, with the exceptions being an alteration in assay buffer (10 mM Tris HCl (pH 7.4), 150 mM NaCl, 1 mM DTT, 0.005% Tween20, 0.01% BSA) and a change in temperature to 25 °C, to improve enzyme stability and assay reliability as compound solubility improved, as outlined in our previous work.

In data set [3] the target is T1, 17β-HSD10. Description: mechanism of inhibition experiments (Hanes–Woolf kinetics). On the set-up: made in house. It is filed as biochemical. On the procedure: as §1
Figure [S2]: Hanes-Woolf kinetic plots for compounds 5, 6 and 61. Each compound’s mode of inhibition with respect to both Acetoacetyl CoEnzymeA and NADH determined from Hanes -Woolf calculations. The mean values shown with n=3 ± St Dev.
(1 picture or pasted object on this page, not shown here)

Data set [4] addresses T1, 17β-HSD10. Nature of the data set: orthogonal counter screen: small molecule aggregation (Triton X-100). On the set-up: made in house. The class given is biochemical. Conditions: for increase in 17β-HSD10 activity within aggregation assay: in the presence of Triton X-100. From the text: During our enzymatic assay development, it was noted that the assay was susceptible to false positives through redox cycling and aggregation mechanism, therefore, two orthogonal counter screens have been implemented to validate the primary screen results. The addition of the detergent Triton X-100 to the assay buffer prevents the hydrophobic interactions required for aggregation, by which a reduction in inhibition in the presence of Triton X-100 indicates the undesirable inhibitory mode of action whereby, the compound could be potentially inhibiting the enzyme through the indirect sequestration of the protein. […] Given that these three compounds were part of a small series we decided to advance them into the next step of screening.
Orthogonal screening (small molecule aggregation and redox cycling experiments) was carried out as described in our previous work.
Background: A counterscreen serves to expose hits that act by an unwanted route or on another target.

In data set [5] the target is T1, 17β-HSD10. Description: (−)-CHANA assay, 17β-HSD10 activity within cells. The class given is cell-based. On the set-up: mts (prefix as printed); expressed in transfected cells; host or cells: HEK293. Conditions: for IC50: HEK293 mts17β-HSD10 cells, 20 µM (−)-CHANA, 95% CI; for behaviour in (−)-CHANA assay media: cellular IC50 could not be calculated. On the procedure:
HEK293 mts17β-HSD10 cells were seeded at a density of 10,000 cells per well (100 µL, 96-well black plates, Greiner Cat no. 655090) in phenol-red free media (10% FBS, 1 mM Sodium Pyruvate, 100 units Penicillin, 0.1 mg/mL Streptomycin and 2 mM L-Glutamine). The media was removed from the cells and replaced with fresh media containing varying concentrations of compound (100 µM–0.098 µM). The fluorogenic probe (−)-CHANA was then added to each well to give a final assay concentration of 20 µM. Fluorescence was immediately measured using the FLUOstar Optima microplate reader (excitation = 380 nm, emission = 520 nm, orbital averaging = 3 mm) and the initial reaction monitored for 3–4 hours. EC50 was calculated from the control - subtracted triplicates using non-linear regression (four parameters) of GraphPad Prism 5 software. Final EC50 and SEM value was obtained as a mean of at least 3 independent measurements.

Each structure is given as a SMILES string.

A word on the IC50: it is the concentration at which inhibition is half-maximal. For the compound `COc1ccc2nc(NC(=O)Nc3ccc(O)c(Br)c3)sc2c1` [Compound 5, 1-(3-Bromo-4-hydroxyphenyl)-3-(6-methoxybenzo[d]thiazol-2-yl)urea], in data set [1], the “LDH Cytotoxicity with 25 μM Compound” value is given as 13.28 ± 0.55% and the “LDH Cytotoxicity with 100 μM Compound” value stood at 20.13 ± 4.26%. In data set [2], the IC50 is 1.28 µM and the remaining activity at 25 µM came out at 14.3 ± 1.95%. Moreover, the “Mechanism of Inhibition with Respect to Both Acetoacetyl-CoA and NADH” value (“Mechanism of Inhibition” for short) in data set [3] was “Mixed”. Also, the “Orthogonal Counter Screens: Evidence of Aggregation or Redox Cycling” value (from here on “Orthogonal Counter Screens: Evidence”) in data set [4] was “None”. Besides, the IC50 in data set [5] is 10.4 µM.

As usually defined, the melting point is the temperature, or range, at which the solid turns liquid. As to `COc1ccc2nc(NC(=O)Nc3ccc(O)c(I)c3)sc2c1` [Compound 6, 1-(4-Hydroxy-3-iodophenyl)-3-(6-methoxybenzo[d]thiazol-2-yl)urea], the melting point was in the range of 241 to 242 °C. In addition, in data set [1], the “LDH Cytotoxicity with 25 μM Compound” value was 23.54 ± 3.02% and the “LDH Cytotoxicity with 100 μM Compound” value worked out at 23.97 ± 3.32%. For the same compound, in data set [2], the IC50 came to 1.86 µM and the remaining activity at 25 µM stood at 9.82 ± 2.19%. Further, the “Mechanism of Inhibition” value in data set [3] was “Mixed”. The “Orthogonal Counter Screens: Evidence” value in data set [4] is reported as “None”. In data set [5], the IC50 stood at 17 µM.

As a reminder, the inhibition is the share of the control response that was lost under treatment. In turn, `CC(C)c1ccc2nc(NC(=O)Nc3ccc(O)c(Cl)c3)sc2c1` [Compound 61, 1-(3-Chloro-4-hydroxyphenyl)-3-(6-isopropylbenzo[d]thiazol-2-yl)urea] gave a melting point of 246 to 248 °C. In data set [1], the “LDH Cytotoxicity with 25 μM Compound” value is 28.83 ± 0.67% and the “LDH Cytotoxicity with 100 μM Compound” value amounted to 55.68 ± 2.55%. Moreover, in data set [2], the inhibition at 25 µM was 77.4%, the IC50 turned out to be 5.12 µM and the remaining activity at 25 µM was 36.5 ± 0.53%. For the same compound, the “Mechanism of Inhibition” value in data set [3] is “Mixed”. Moreover, in data set [4], the “Orthogonal Counter Screens: Evidence” value is on record as “None”. The same compound came in with an IC50 in data set [5] of 7.88 µM.

`CC(C)(C)c1ccc2nc(NC(=O)Nc3ccc(O)c(Cl)c3)sc2c1` [Compound 62, 1-(6-(Tert-butyl)benzo[d]thiazol-2-yl)-3-(3-chloro-4-hydroxyphenyl)urea] had a melting point of 238 to 240 °C. For the same compound, in data set [1], the “LDH Cytotoxicity with 25 μM Compound” value is 27.25 ± 3.35% and the “LDH Cytotoxicity with 100 μM Compound” value was determined as 64.40 ± 3.62%. In data set [2], the inhibition at 25 µM came to 78.4%, the IC50 is 5.29 µM and the remaining activity at 25 µM turned out to be 34 ± 2.44%. Moreover, in data set [3], the “Mechanism of Inhibition” value is given as “Mixed”. Also, the “Orthogonal Counter Screens: Evidence” value in data set [4] is “None”. The compound also came in with a 50% inhibitory concentration (IC50) in data set [5] of 3.77 µM.

For the compound `CCOc1ccc2nc(NC(=O)Nc3ccc(O)c(Cl)c3)sc2c1` [Compound 63, 1-(3-Chloro-4-hydroxyphenyl)-3-(6-ethoxybenzo[d]thiazol-2-yl)urea], in data set [1], the “LDH Cytotoxicity with 25 μM Compound” value is on record as 15.98 ± 1.02% and the “LDH Cytotoxicity with 100 μM Compound” value worked out at 18.05± 0.96%. Further, in data set [2], the half-inhibitory concentration (IC50) was 1.61 µM and the remaining activity at 25 µM came out at 28.7 ± 0.38%. The “Mechanism of Inhibition” value in data set [3] is on record as “Mixed”. The same compound gave an IC50 in data set [5] of 2.29 µM.

On to `O=C(Nc1ccc(O)c(Cl)c1)Nc1nc2ccc(SC(F)(F)F)cc2s1` [Compound 64, 1-(3-Chloro-4-hydroxyphenyl)-3-(6-((trifluoromethyl)thio)benzo[d]thiazol-2-yl)urea], for which the melting point was 256 to 258 °C. Besides, in data set [1], the “LDH Cytotoxicity with 25 μM Compound” value was 22.83 ± 0.63% and the “LDH Cytotoxicity with 100 μM Compound” value is reported as 33.35 ± 2.92%. In addition, in data set [2], the IC50 came to 5.21 µM and the remaining activity at 25 µM worked out at 50.5 ± 1.25%. The “Mechanism of Inhibition” value in data set [3] is listed as “Mixed”. For the same compound, in data set [4], the “Orthogonal Counter Screens: Evidence” value is “None”. The “behaviour in (−)-CHANA assay media” value in data set [5] was “precipitating within the assay media”.

Turning to `N#CSc1ccc2nc(NC(=O)Nc3ccc(O)c(Cl)c3)sc2c1` [Compound 65, 1-(3-Chloro-4-hydroxyphenyl)-3-(6-thiocyanatobenzo[d]thiazol-2-yl)urea], the melting point lay in the range of 251 to 253 °C. In data set [1], the “LDH Cytotoxicity with 25 μM Compound” value came out at 11.27 ± 0.58% and the “LDH Cytotoxicity with 100 μM Compound” value came to 27.41 ± 2.65%. Besides, in data set [2], the inhibition at 25 µM stood at 85.7% and the remaining activity at 25 µM was determined as 37.83 ± 0.35%. In addition, the “Mechanism of Inhibition” value in data set [3] was “Mixed”. Further, in data set [4], the “increase in 17β-HSD10 activity within aggregation assay” value is 28.5% increase in 17β-HSD10 activity within aggregation assay. Also, it took 88.9 µM to reach half-maximal inhibition in data set [5] (IC50).

For `CS(=O)(=O)c1ccc2nc(NC(=O)Nc3ccc(O)c(Cl)c3)sc2c1` [Compound 66, 1-(3-Chloro-4-hydroxyphenyl)-3-(6-(methylsulfonyl)benzo[d]thiazol-2-yl)urea], in data set [1], the “LDH Cytotoxicity with 25 μM Compound” value is listed as 13.59 ± 0.66% and the “LDH Cytotoxicity with 100 μM Compound” value worked out at 17.51± 0.46%. Moreover, in data set [2], the IC50 was determined as 0.93 µM and the remaining activity at 25 µM came to 21.62 ± 0.21%. In data set [3], the “Mechanism of Inhibition” value was “Mixed”. For the same compound, the “Orthogonal Counter Screens: Evidence” value in data set [4] was “None”. In addition, the “behaviour in (−)-CHANA assay media” value in data set [5] is on record as “precipitating within the assay media”.

Regarding `O=C(Nc1ccc(O)c(Cl)c1)Nc1nc2ccc(S(=O)(=O)C(F)(F)F)cc2s1` [Compound 67, 1-(3-Chloro-4-hydroxyphenyl)-3-(6-((trifluoromethyl)sulfonyl)benzo[d]thiazol-2-yl)urea], the melting point lay within 267 to 269 °C. Also, in data set [1], the “LDH Cytotoxicity with 25 μM Compound” value is on record as 22.68 ± 2.68% and the “LDH Cytotoxicity with 100 μM Compound” value worked out at 36.05 ± 1.75%. Also, in data set [2], the IC50 came to 2.69 µM and the remaining activity at 25 µM was found to be 29.1 ± 0.32%. Moreover, the “Mechanism of Inhibition” value in data set [3] is “Mixed”. The “increase in 17β-HSD10 activity within aggregation assay” value in data set [4] is on record as 12.6% increase in 17β-HSD10 activity within aggregation assay. Moreover, the “behaviour in (−)-CHANA assay media” value in data set [5] is “precipitating within the assay media”.

The values above are taken from paper PMC6696238, “Novel Benzothiazole-Based Ureas as 17β-HSD10 Inhibitors, A Potential Alzheimer’s Disease Treatment” (Molecules, 2019).
